Data taken from ChEMBL document CHEMBL4715772, “A facile stereoselective synthesis of dispiro-indeno pyrrolidine/pyrrolothiazole-thiochroman hybrids and evaluation of their antimycobacterial, anticancer and AchE inhibitory activities” (Bioorg Med Chem, 2016).
Converted amounts (≈) assume the structure as drawn.

Experiments:
MCF7 [1] = assay: Antiproliferative activity against human MCF7 cells assessed as inhibition of cell proliferation incubated for 72 hrs by CellTiter-Glo assay; assay type: functional, cell-based; details: MCF7, 72 h
Acetylcholinesterase = Acetylcholinesterase (Homo sapiens, UniProt P22303); assay: Inhibition of AChE (unknown origin) using acetylthiocholine chloride as substrate preincubated with enzyme for 15 mins followed by substrate addition by Ellman's method
Sequence of Acetylcholinesterase (P22303 whole entry): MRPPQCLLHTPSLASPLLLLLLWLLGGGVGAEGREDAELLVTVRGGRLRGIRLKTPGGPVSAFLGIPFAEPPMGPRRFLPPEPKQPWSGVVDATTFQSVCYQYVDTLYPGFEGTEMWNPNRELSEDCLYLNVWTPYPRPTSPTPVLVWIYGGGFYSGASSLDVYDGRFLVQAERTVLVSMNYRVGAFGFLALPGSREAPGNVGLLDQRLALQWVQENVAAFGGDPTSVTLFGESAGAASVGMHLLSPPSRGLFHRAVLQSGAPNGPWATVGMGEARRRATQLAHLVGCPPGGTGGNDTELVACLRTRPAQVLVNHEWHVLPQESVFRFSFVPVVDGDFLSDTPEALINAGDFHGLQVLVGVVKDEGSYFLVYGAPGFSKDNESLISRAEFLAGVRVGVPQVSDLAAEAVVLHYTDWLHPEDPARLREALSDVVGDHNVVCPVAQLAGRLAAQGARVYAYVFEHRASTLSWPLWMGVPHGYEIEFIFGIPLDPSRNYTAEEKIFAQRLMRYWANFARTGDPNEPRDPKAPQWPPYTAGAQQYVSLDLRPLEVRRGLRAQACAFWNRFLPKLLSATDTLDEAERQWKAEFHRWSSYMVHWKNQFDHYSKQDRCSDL

HT-29 = assay: Antiproliferative activity against human HT-29 cells assessed as inhibition of cell proliferation incubated for 72 hrs by CellTiter-Glo assay; assay type: functional, cell-based; details: HT-29, 72 h
[2] = test system: Mycobacterium tuberculosis; assay: Antimycobacterial activity against Mycobacterium tuberculosis H37Rv assessed as inhibition of bacterial growth by microdilution alamar blue broth assay; assay type: functional, organism-based
[3] = Cytotoxicity against African green monkey Vero cells assessed as cell viability after 72 hrs by MTT assay; assay type: cell-based; details: chlorocebus sabaeus, read-out: MNCC
MCF7 [4] = assay: Antiproliferative activity against human MCF7 cells assessed as inhibition of cell proliferation at 50 uM incubated for 72 hrs by CellTiter-Glo assay relative to control; assay type: functional; details: MCF7, read-out: INH
[5] = test system: Mycobacterium tuberculosis; assay: Potency index, ratio of cycloserine IC50 to test compound IC50 for antimycobacterial activity against Mycobacterium tuberculosis H37Rv by microdilution alamar blue broth assay; assay type: functional
[6] = test system: Mycobacterium tuberculosis; assay: Potency index, ratio of pyrimethamine IC50 to test compound IC50 for antimycobacterial activity against Mycobacterium tuberculosis H37Rv by microdilution alamar blue broth assay; assay type: functional

| SMILES | IC50 (MCF7 [1]) [µM] | IC50 (Acetylcholinesterase) [µM] | IC50 (HT-29) [µM] | IC50 [2] [µM] | IC90 [2] [µM] | MIC [2] [µM] | MNTC at 72 h [3] [µg/mL] | inhibition at 50 µM (MCF7 [4]) [%] | Ratio IC50 [5] | Ratio IC50 [6] |
| --- | --- | --- | --- | --- | --- | --- | --- | --- | --- | --- |
| O=C1c2ccccc2C(=O)C12N1CSC[C@@H]1[C@@H](c1cccs1)[C@@]21CSc2ccccc2C1=O | 97 | 19.1 | 94 | 12.9 | 24.6 | 50 (≈ 24.5 µg/mL) | > 6.25 | < 50 |  |  |
| CN1C[C@@H](c2ccc(Br)cc2)[C@@]2(CSc3ccccc3C2=O)C12C(=O)c1ccccc1C2=O | 101 | 28.3 | 88.1 | 29.9 | 41.9 | 50 (≈ 25.9 µg/mL) | > 6.25 | < 50 |  |  |
| COc1cccc2c1C(=O)c1c(O)c3c(c(O)c1C2=O)C[C@@](O)(C(=O)CO)C[C@@H]3O[C@H]1C[C@H](N)[C@H](O)[C@H](C)O1 [DOXORUBICIN] |  |  | 12.9 |  |  |  |  |  |  |  |
| CN1CC(c2ccccc2Br)[C@@]2(CSc3ccccc3C2=O)C12C(=O)c1ccccc1C2=O (single isomer, unassigned) | 92.9 | 27.1 | 86.8 | 18.3 | 36.5 | 50 (≈ 25.9 µg/mL) | > 6.25 | < 50 |  |  |
| O=C1c2ccccc2C(=O)C12N1CSC[C@@H]1[C@@H](c1ccc(Cl)cc1)[C@@]21CSc2ccccc2C1=O | 104 | 21.3 | 76.7 | 7.2 | 15.5 | 50 (≈ 25.9 µg/mL) | > 6.25 | < 50 |  |  |
| O=C1c2ccccc2C(=O)C12N1CSC[C@@H]1C(c1ccc(Cl)cc1Cl)[C@@]21CSc2ccccc2C1=O (single isomer, unassigned) | 105 | 19.5 | 101 | 2.87 | 4.6 | 6.25 (≈ 3.45 µg/mL) | > 6.25 | < 50 | 4 | 12 |
| COc1ccc([C@@H]2[C@H]3CSCN3C3(C(=O)c4ccccc4C3=O)[C@]23CSc2ccccc2C3=O)cc1 | 86 | 1.1 | 97.2 | 12.9 | 24.6 | 50 (≈ 25.7 µg/mL) | > 6.25 | < 50 |  |  |
| COc1ccc([C@@H]2CN(C)C3(C(=O)c4ccccc4C3=O)[C@]23CSc2ccccc2C3=O)cc1 | 102 | 1.16 | 93.4 | 18.3 | 36.5 | 50 (≈ 23.5 µg/mL) | > 6.25 | < 50 |  |  |
| CN1C[C@@H](c2ccc(F)cc2)[C@@]2(CSc3ccccc3C2=O)C12C(=O)c1ccccc1C2=O | 105 | 23.3 | 99.6 | 11.1 | 22 | 50 (≈ 22.9 µg/mL) | > 6.25 | < 50 |  |  |
| CN1CC(c2ccccc2Cl)[C@@]2(CSc3ccccc3C2=O)C12C(=O)c1ccccc1C2=O (single isomer, unassigned) | 86 | 10.1 | 97.2 | 47.2 | 66.5 | 100 (≈ 47.4 µg/mL) | > 6.25 | < 50 |  |  |
| CN1C[C@@H](c2cccc(F)c2)[C@@]2(CSc3ccccc3C2=O)C12C(=O)c1ccccc1C2=O | 108 | 24.6 | 82.1 | 4.28 | 9.86 | 25 (≈ 11.4 µg/mL) | > 6.25 | < 50 |  |  |
| O=C1c2ccccc2C(=O)C12N1CSC[C@@H]1[C@@H](c1ccccc1)[C@@]21CSc2ccccc2C1=O | 93.5 | 12.9 | 92.2 | 16.3 | 25.5 | 100 (≈ 48.4 µg/mL) | > 6.25 | < 50 |  |  |
| CC(C)c1ccc([C@@H]2CN(C)C3(C(=O)c4ccccc4C3=O)[C@]23CSc2ccccc2C3=O)cc1 | 93 | 19.8 | 98.3 | 25.9 | 44.6 | 100 (≈ 48.2 µg/mL) | > 6.25 | < 50 |  |  |
| O=C1c2ccccc2C(=O)C12N1CSC[C@@H]1[C@@H](c1ccc(Br)cc1)[C@@]21CSc2ccccc2C1=O | 92.9 | 34.6 | 86.8 | 21.9 | 47.9 | 50 (≈ 28.1 µg/mL) | > 6.25 | < 50 |  |  |
| Cc1ccc([C@@H]2CN(C)C3(C(=O)c4ccccc4C3=O)[C@]23CSc2ccccc2C3=O)cc1 | 105 | 6.6 | 101 | 47.2 | 66.5 | 100 (≈ 45.4 µg/mL) | > 6.25 | < 50 |  |  |
| O=C1c2ccccc2C(=O)C12N1CSC[C@@H]1[C@@H](c1cccc(Br)c1)[C@@]21CSc2ccccc2C1=O | 84.8 | 38.3 | 79.6 | 17.2 | 35.5 | 50 (≈ 28.1 µg/mL) | > 6.25 | < 50 |  |  |
| CN1C[C@@H](c2ccc(Cl)cc2)[C@@]2(CSc3ccccc3C2=O)C12C(=O)c1ccccc1C2=O | 97 | 22.2 | 94 | 8.46 | 12.4 | 50 (≈ 23.7 µg/mL) | > 6.25 | < 50 |  |  |

| SMILES | IC50 (MCF7 [1]) [µM] | IC50 (Acetylcholinesterase) [µM] | IC50 (HT-29) [µM] | IC50 [2] [µM] | IC90 [2] [µM] | MIC [2] [µM] | MNTC at 72 h [3] [µg/mL] | inhibition at 50 µM (MCF7 [4]) [%] | Ratio IC50 [5] | Ratio IC50 [6] |
| --- | --- | --- | --- | --- | --- | --- | --- | --- | --- | --- |
| Cc1ccc([C@@H]2[C@H]3CSCN3C3(C(=O)c4ccccc4C3=O)[C@]23CSc2ccccc2C3=O)cc1 | 107 | 7.11 | 90 | 28.6 | 47.7 | 50 (≈ 24.9 µg/mL) | > 6.25 | < 50 |  |  |
| CN1C[C@@H](c2cccc(Br)c2)[C@@]2(CSc3ccccc3C2=O)C12C(=O)c1ccccc1C2=O | 110 | 19.8 | 108 | 5.81 | 16.1 | 25 (≈ 13 µg/mL) | > 6.25 | < 50 |  |  |
| CC(C)c1ccc([C@@H]2[C@H]3CSCN3C3(C(=O)c4ccccc4C3=O)[C@]23CSc2ccccc2C3=O)cc1 | 91.8 | 28.3 | 93.4 | 45 | 76.4 | 100 (≈ 52.6 µg/mL) | > 6.25 | < 50 |  |  |
| CN1C[C@@H](c2ccccc2)[C@@]2(CSc3ccccc3C2=O)C12C(=O)c1ccccc1C2=O | 104 | 11.1 | 86.7 | 15.2 | 27.9 | 100 (≈ 44 µg/mL) | > 6.25 | < 50 |  |  |
| O=C1c2ccccc2C(=O)C12N1CSC[C@@H]1[C@@H](c1ccccc1Br)[C@@]21CSc2ccccc2C1=O |  |  |  |  |  |  | > 6.25 |  |  |  |
| N[C@@H]1CONC1=O [CYCLOSERINE] |  |  |  |  |  | 25 (≈ 2.55 µg/mL) | > 6.25 |  |  |  |
| O=C1c2ccccc2C(=O)C12N1CSC[C@@H]1[C@@H](c1cccc(F)c1)[C@@]21CSc2ccccc2C1=O | 116 | 12.2 | 91.7 | 16.4 | 22 | 50 (≈ 25.1 µg/mL) | > 6.25 | < 50 |  |  |
| O=C1c2ccccc2C(=O)C12N1CSC[C@@H]1[C@@H](c1cccc3ccccc13)[C@@]21CSc2ccccc2C1=O | 102 | 16.5 | 93.4 | 28.6 | 47.7 | 50 (≈ 26.7 µg/mL) | > 6.25 | < 50 |  |  |
| O=C1c2ccccc2C(=O)C12N1CSC[C@@H]1[C@@H](c1ccc(F)cc1)[C@@]21CSc2ccccc2C1=O | 116 | 19.8 | 95.9 | 13.2 | 25.9 | 50 (≈ 25.1 µg/mL) | > 6.25 | < 50 |  |  |
| CC[C@@H](CO)NCCN[C@@H](CC)CO [ETHAMBUTOL] |  |  |  | < 1.56 |  | 12.5 (≈ 2.55 µg/mL) | > 6.25 |  |  |  |
| O=C1c2ccccc2C(=O)C12N1CSC[C@@H]1C(c1ccccc1Cl)[C@@]21CSc2ccccc2C1=O (single isomer, unassigned) | 101 | 33.2 | 88.1 | 8.57 | 14.7 | 50 (≈ 25.9 µg/mL) | > 6.25 | < 50 |  |  |
| CN1C[C@@H](c2cccc3ccccc23)[C@@]2(CSc3ccccc3C2=O)C12C(=O)c1ccccc1C2=O | 86 | 2.12 | 97.2 | 6.87 | 14.6 | 25 (≈ 12.2 µg/mL) | > 6.25 | < 50 |  |  |
| CCc1nc(N)nc(N)c1-c1ccc(Cl)cc1 [PYRIMETHAMINE] |  |  |  |  |  | 100 (≈ 24.9 µg/mL) | > 6.25 |  |  |  |
| CN1CC(c2ccc(Cl)cc2Cl)[C@@]2(CSc3ccccc3C2=O)C12C(=O)c1ccccc1C2=O (single isomer, unassigned) | 107 | 24.1 | 90 | 1.07 | 1.98 | 6.25 (≈ 3.18 µg/mL) | > 6.25 | < 50 | 12 | 37 |
| NNC(=O)c1ccncc1 [ISONIAZID] |  |  |  |  | 0.29 | 0.31 (≈ 0.0425 µg/mL) | > 6.25 |  |  |  |
| CN1C[C@@H](c2cccs2)[C@@]2(CSc3ccccc3C2=O)C12C(=O)c1ccccc1C2=O | 123 | 21.2 | 95.9 | 25.9 | 44.6 | 100 (≈ 44.6 µg/mL) | > 6.25 | < 50 |  |  |
